Literature values in patent US20250127693A1, “Materials for Desensitization and Targeted Drug Delivery to Teeth and Gums” (South Dakota Board of Regents, priority 2023, published 2025).

How the values were obtained:
mammalian cells = conditions: prolonged exposures

C=CCc1ccc(O)c(OC)c1 [eugenol]
concentration at which eugenol inhibits proliferation of cancerous cells (cancerous cells): 82 µg/mL | concentration at which toxicity for mammalian cells starts (mammalian cells): 164 µg/mL
